Results taken from patent publication EP0193355B1, “Analgesic composition” (ELI LILLY AND COMPANY, priority 1985, dated 1986).
Structures can show the parent of a compound that is named as a salt.

Test system: Mouse Writhing
Assay: mouse writhing assay (acetic acid-induced writhing)
Assay type: in vivo, albino male mice
Conditions: for Percent Inhibition of Writhing: Codeine Sulfate 10 mg/kg + Saline, oral; for Codeine Sulfate Induced Inhibition of Mouse Writhing ED₅₀: codeine sulfate subcutaneous, writhing assessed 30 minutes later
From the text: Writhing, which is characterized by contraction of the abdominal musculature, extension of the hindlegs, and rotation of the trunk, was induced in albino male mice. The extent to which writhing is reduced following administration of a test compound is an indication of the analgesic activity of that compound.
Mice, weighing 18-24 grams, were fasted overnight and given the test compounds by gavage or subcutaneously. Writhing was then induced by the intraperitoneal administration of acetic acid (0.55 to 0.60 percent). Each treatment group consisted of five mice. The total number of writhes for the treatment group was determined during a 10-minute observation period starting five minutes after acetic acid administration. […] The results in the mouse writhing assay are presented either as the effective dose in mg/kg of the respective test compound required to inhibit induced writhing in the test animals by fifty percent (ED₅₀), or as the percent inhibition of writhing at the particular dose of the test compound administered.

## CNCCC(Oc1ccc(C(F)(F)F)cc1)c1ccccc1 (stereo not drawn) [fluoxetine hydrochloride, 3-(4-trifluoromethylphenoxy)-N-methyl-3-phenylpropylamine]
Fluoxetine hydrochloride alone, doses up to 160 mg/kg, 30-180 minutes before writhing was induced
  analgesic activity: devoid of analgesic activity

## COc1ccc2c3c1O[C@H]1[C@@H](O)C=C[C@H]4[C@@H](C2)N(C)CC[C@@]341 [Codeine Sulfate, codeine sulfate]
30 minutes after administration
  Percent Inhibition of Writhing: 40%
60 minutes after administration
  Percent Inhibition of Writhing: 38%
120 minutes after administration
  Percent Inhibition of Writhing: 37%
180 minutes after administration
  Percent Inhibition of Writhing: 35%
240 minutes after administration
  Percent Inhibition of Writhing: 22%
Codeine Sulfate 10 mg/kg oral, Fluoxetine Hydrochloride 0 mg/kg, writhing assessed 60 minutes later
  Percent Inhibition of Mouse Writhing: no inhibition
Mus musculus, 1 h, Codeine Sulfate 10 mg/kg oral, Fluoxetine Hydrochloride 0 mg/kg, writhing assessed 60 minutes later, read-out: Percent Inhibition of Mouse Writhing
  inhibition at 10 mg/kg: 0%
Codeine sulfate oral, alone (Fluoxetine Hydrochloride 0), writhing assessed 60 minutes later
  Codeine Sulfate Inhibition of Mouse Writhing ED₅₀: 27.0 mg/kg
Codeine sulfate oral, simultaneously with Fluoxetine Hydrochloride 20 mg/kg oral, writhing assessed 60 minutes later
  Codeine Sulfate Inhibition of Mouse Writhing ED₅₀: 15.4 mg/kg
Alone (Fluoxetine Hydrochloride 0 mg/kg s.c.)
  Codeine Sulfate Induced Inhibition of Mouse Writhing ED₅₀: 9.8 mg/kg
Simultaneously with Fluoxetine Hydrochloride 20 mg/kg s.c.
  Codeine Sulfate Induced Inhibition of Mouse Writhing ED₅₀: 2.8 mg/kg
Pretreatment Fluoxetine Hydrochloride (20 mg/kg) oral three hours before, codeine sulfate oral 15 minutes prior to assessment of writhing
  Codeine Sulfate Inhibition of Mouse Writhing ED₅₀: 9.4 mg/kg
Pretreatment Saline oral three hours before, codeine sulfate oral 15 minutes prior to assessment of writhing
  Codeine Sulfate Inhibition of Mouse Writhing ED₅₀: 18.6 mg/kg
subcutaneous, 30 minutes prior to the assessment of mouse writhing
  ED₅₀ of codeine sulfate alone relative to the amount needed when 20 mg/kg of fluoxetine hydrochloride was concomitantly administered: 3.5 times
